{"source": "patent US20050112573A1", "about": "“Method of detecting toxic substance” (priority 2001, published 2005)", "tested_on": "yeast genes (level of expressed mRNA)", "assay": "DNA chip analysis of expressed mRNA of yeast genes after 2 h culture with a toxic chemical substance", "type": "cell-based, Saccharomyces cerevisiae S288C", "conditions": "for The level of expressed mRNA in the presence of chemical substance/ (ratio to absence of chemical substance): stress protein genes, DNA chip", "experimental": "Yeast (Saccharomyces cerevtisiae S288C (α SUC2mal mel gap2 CUP1)) were cultured at 25° C. on YPD medium (yeast extract 1%, polypepton 2%, glucose 2%). One of toxic chemical substances was added to the cell at logarithmic growth phase, and the cell was further cultured for two hours. Cell was cultured without any chemical substance in the same condition, and was used as control. Concentrations of the chemical substances were defined to inhibit the growth of the yeast but not lead to death.\nAfter the completion of cultivation, the culture was centrifuged to collect the cells. To the cells, sodium acetate buffer (50 mM sodium acetate, 10 mM EDTA, 1% SDS) was added, and the mixture was shaken at 65° C. for five minutes, followed by returning to room temperature, and obtaining the supernatant, which procedure was repeated two times. To the supernatant, ½ amount of a solution of phenol/chloroform was added, and the mixture was centrifuged to give a supernatant, which was added with an equal amount of chloroform, and the mixture was centrifuged to give a supernatant. To the supernatant, an equal amount of isopropanol containing 0.3 M sodium acetate was added, and the mixture was allowed to stand at room temperature for 30 minutes, after which the mixture was centrifuged to give a sediment of the whole RNAs. Seventy % ethanol was added to the sediment, and the mixture was again centrifuged to give a sediment, which was then dried and dissolved in water. mRNA was isolated from the whole RNAs as followings. In view of the fact that a poly A chain is attached to the 3′ terminus of mRNA, a polynucleotide having a poly T structure which was immobilized on the surface of latex beads was used to trap the mRNA, and then the mRNA was washed and eluted with spine column (Oligotex-dT30<Super>mRNA Purification Kit, Takara). Reverse transcription of the mRNA was conducted with a reverse transcriptase (Super Script II Reverse Transcriptase; catalogue No. 18064-014, GibcoBRL) using fluorescence-labeled nucleotides to give cDNAs that were introduced with Cy3-dUTP or Cy5-dUTP during the reverse transcription.\nThe labeled cDNAs were dissolved in TE buffer (10 mM Tris-HCl/1 mM EDTA, pH8.0), and the solution was dropped on the DNA chip containing the whole genes of yeast (DNA Chip Research Inc. Japan) so that the cDNAs were hybridized on the DNA chip at 65° C. for over 12 hours. The fluoresces intensity of the DNA chip was read with a scanner, and the ratio relative to the fluorescence intensity resulting from the absence of chemical substance was estimated as the following, which is shown in Tables 1 to 9: [formula]\nIn the Tables, “Intensity” indicated in the rightmost column is a value of the level of expressed mRNA of each gene in control cells as divided by the average level of the expressions of the whole genes.", "data": [{"compound": "CCCCCCCCCCCCOS(=O)(=O)[O-].[Na+]", "note": "[(18), sodium lauryl sulfate]", "values": [{"measurement": "The level of expressed mRNA in the presence of chemical substance/absence: YOR267C", "setting": "gene YOR267C", "result": 1.0}, {"measurement": "The level of expressed mRNA in the presence of chemical substance/absence: YOR325W", "setting": "gene YOR325W", "result": 1.0}, {"measurement": "level of expressed mRNA in the presence of chemical substance/in its absence", "setting": "gene YOR336W", "result": 1.0}, {"measurement": "level of expressed mRNA in the presence of chemical substance/in its absence", "setting": "gene YOR344C", "result": 1.3}, {"measurement": "level of expressed mRNA in the presence of chemical substance/in its absence", "setting": "gene YOR347C", "result": 1.3}, {"measurement": "The level of expressed mRNA in the presence of chemical substance/absence: YPL005W", "setting": "gene YPL005W", "result": 1.1}, {"measurement": "level of expressed mRNA in the presence of chemical substance/in its absence", "setting": "gene YPL017C", "result": 0.8}, {"measurement": "The level of expressed mRNA in the presence of chemical substance / the level in the absence of chemical substance, yeast gene YPL107W", "setting": "gene YPL107W, DNA chip fluorescence ratio to control without chemical, 2 hours culture with chemical, growth-inhibiting non-lethal concentration", "result": 1.1}, {"measurement": "The level of expressed mRNA in the presence of chemical substance / the level in the absence of chemical substance, yeast gene YPL138C", "setting": "gene YPL138C, DNA chip fluorescence ratio to control without chemical, 2 hours culture with chemical, growth-inhibiting non-lethal concentration", "result": 1.1}, {"measurement": "The level of expressed mRNA in the presence of chemical substance/absence: YPL150W", "setting": "gene YPL150W", "result": 1.1}, {"measurement": "The level of expressed mRNA in the presence of chemical substance/absence: YPL151C", "setting": "gene YPL151C", "result": 1.0}, {"measurement": "The level of expressed mRNA in the presence of chemical substance/absence: YPL152W", "setting": "gene YPL152W", "result": 1.9}, {"measurement": "The level of expressed mRNA in the presence of chemical substance/absence: YPL168W", "setting": "gene YPL168W", "result": 1.2}, {"measurement": "The level of expressed mRNA in the presence of chemical substance/absence: YPL180W", "setting": "gene YPL180W", "result": 0.9}, {"measurement": "The level of expressed mRNA in the presence of chemical substance/absence: YPL188W", "setting": "gene YPL188W", "result": 0.9}, {"measurement": "The level of expressed mRNA in the presence of chemical substance/absence: YPL221W", "setting": "gene YPL221W", "result": 1.2}, {"measurement": "The level of expressed mRNA in the presence of chemical substance/absence: YPL225W", "setting": "gene YPL225W", "result": 1.7}, {"measurement": "The level of expressed mRNA in the presence of chemical substance/absence: YPL249C", "setting": "gene YPL249C", "result": 1.2}, {"measurement": "The level of expressed mRNA in the presence of chemical substance/absence: YPL260W", "setting": "gene YPL260W", "result": 1.3}, {"measurement": "level of expressed mRNA in the presence of chemical substance/in its absence", "setting": "gene YPL265W", "result": 0.4}, {"measurement": "level of expressed mRNA in the presence of chemical substance/in its absence", "setting": "gene YPR006C", "result": 2.1}, {"measurement": "level of expressed mRNA in the presence of chemical substance/in its absence", "setting": "gene YPR026W", "result": 1.3}, {"measurement": "The level of expressed mRNA in the presence of chemical substance/absence: YPR049C", "setting": "gene YPR049C", "result": 1.1}, {"measurement": "The level of expressed mRNA in the presence of chemical substance/absence: YPR061C", "setting": "gene YPR061C", "result": 0.9}, {"measurement": "The level of expressed mRNA in the presence of chemical substance/absence: YPR093C", "setting": "gene YPR093C", "result": 1.1}, {"measurement": "The level of expressed mRNA in the presence of chemical substance/absence: YPR146C", "setting": "gene YPR146C", "result": 1.1}, {"measurement": "The level of expressed mRNA in the presence of chemical substance/absence: YPR148C", "setting": "gene YPR148C", "result": 2.0}, {"measurement": "The level of expressed mRNA in the presence of chemical substance/absence: YPR150W", "setting": "gene YPR150W", "result": 1.0}, {"measurement": "The level of expressed mRNA in the presence of chemical substance/absence: YPR158W", "setting": "gene YPR158W", "result": 0.7}, {"measurement": "The level of expressed mRNA in the presence of chemical substance/absence: YPR169W", "setting": "gene YPR169W", "result": 1.1}, {"measurement": "The level of expressed mRNA in the presence of chemical substance/absence: YPR172W", "setting": "gene YPR172W", "result": 1.4}, {"measurement": "The level of expressed mRNA in the presence of chemical substance/absence: YPR174C", "setting": "gene YPR174C", "result": 0.9}, {"measurement": "The level of expressed mRNA in the presence of chemical substance/The level of expressed mRNA in the absence of chemical substance", "setting": "yeast gene YAR010C", "result": 1.0}, {"measurement": "The level of expressed mRNA in the presence of chemical substance/The level of expressed mRNA in the absence of chemical substance", "setting": "yeast gene YBL005W-A", "result": 1.0}, {"measurement": "The level of expressed mRNA in the presence of chemical substance/ (ratio to absence), gene YBL038W", "setting": "yeast gene YBL038W, mitochondria-located protein genes, 2 h culture with chemical", "result": 1.9}, {"measurement": "The level of expressed mRNA in the presence of chemical substance/The level of expressed mRNA in the absence of chemical substance", "setting": "yeast gene YBL041W", "result": 2.0}, {"measurement": "The level of expressed mRNA in the presence of chemical substance/The level of expressed mRNA in the absence of chemical substance", "setting": "yeast gene YBL043W", "result": 1.8}, {"measurement": "The level of expressed mRNA in the presence of chemical substance/The level of expressed mRNA in the absence of chemical substance", "setting": "yeast gene YBL078C", "result": 2.8}, {"measurement": "The level of expressed mRNA in the presence of chemical substance/ (ratio to absence of chemical substance)", "setting": "yeast gene YBL093C", "result": 1.3}, {"measurement": "The level of expressed mRNA in the presence of chemical substance/ (in its absence), gene YBR036C", "setting": "yeast gene YBR036C, ratio of DNA chip fluorescence intensity to that without chemical substance", "result": 1.8}, {"measurement": "The level of expressed mRNA in the presence of chemical substance/ (ratio to absence of chemical substance)", "setting": "yeast gene YBR044C", "result": 1.3}, {"measurement": "The level of expressed mRNA in the presence of chemical substance/ (ratio to absence), gene YBR122C", "setting": "yeast gene YBR122C, mitochondria-located protein genes, 2 h culture with chemical", "result": 1.5}, {"measurement": "The level of expressed mRNA in the presence of chemical substance/The level of expressed mRNA in the absence of chemical substance", "setting": "yeast gene YBR214W", "result": 1.2}, {"measurement": "The level of expressed mRNA in the presence of chemical substance/ (ratio to absence), gene YBR251W", "setting": "yeast gene YBR251W, mitochondria-located protein genes, 2 h culture with chemical", "result": 1.4}, {"measurement": "The level of expressed mRNA in the presence of chemical substance/ (in its absence), gene YBR298C", "setting": "yeast gene YBR298C, ratio of DNA chip fluorescence intensity to that without chemical substance", "result": 0.8}, {"measurement": "The level of expressed mRNA in the presence of chemical substance/The level of expressed mRNA in the absence of chemical substance", "setting": "yeast gene YCL020W", "result": 1.3}, {"measurement": "The level of expressed mRNA in the presence of chemical substance/The level of expressed mRNA in the absence of chemical substance", "setting": "yeast gene YCL027W", "result": 0.8}, {"measurement": "The level of expressed mRNA in the presence of chemical substance/The level of expressed mRNA in the absence of chemical substance", "setting": "yeast gene YCR004C", "result": 3.5}, {"measurement": "The level of expressed mRNA in the presence of chemical substance/ (ratio to absence), gene YCR046C", "setting": "yeast gene YCR046C, mitochondria-located protein genes, 2 h culture with chemical", "result": 1.0}, {"measurement": "The level of expressed mRNA in the presence of chemical substance/The level of expressed mRNA in the absence of chemical substance", "setting": "yeast gene YCR071C", "result": 1.3}, {"measurement": "The level of expressed mRNA in the presence of chemical substance/ (ratio to absence), gene YCR083W", "setting": "yeast gene YCR083W, mitochondria-located protein genes, 2 h culture with chemical", "result": 1.3}, {"measurement": "The level of expressed mRNA in the presence of chemical substance/ (ratio to absence of chemical substance)", "setting": "yeast gene YCR083W", "result": 1.3}, {"measurement": "The level of expressed mRNA in the presence of chemical substance/The level of expressed mRNA in the absence of chemical substance", "setting": "yeast gene YCR088W", "result": 0.9}, {"measurement": "The level of expressed mRNA in the presence of chemical substance/The level of expressed mRNA in the absence of chemical substance", "setting": "yeast gene YDL008W", "result": 1.6}, {"measurement": "The level of expressed mRNA in the presence of chemical substance/ in its absence, gene YDL067C", "setting": "yeast gene YDL067C, energy system protein genes, 2 h culture with the chemical, ratio to control without chemical", "result": 1.7}, {"measurement": "The level of expressed mRNA in the presence of chemical substance/ (ratio to absence), gene YDL067C", "setting": "yeast gene YDL067C, mitochondria-located protein genes, 2 h culture with chemical", "result": 1.7}, {"measurement": "The level of expressed mRNA in the presence of chemical substance/ in its absence, gene YDL078C", "setting": "yeast gene YDL078C, energy system protein genes, 2 h culture with the chemical, ratio to control without chemical", "result": 2.0}]}]}
